Source: patent US20220380801A1, “TRIPARTITE SYSTEMS FOR PROTEIN DIMERIZATION AND METHODS OF USE” (priority 2019, published 2022)
Entries after “also recorded” stand apart in the source; their conditions may differ. Read-outs that look alike come from different tables or passages of the source.

Key:
WT HCV NS3/4A PR = WT HCV NS3/4A PR (Hepatitis C virus subtype 1a, UniProt A8DG50, A1066T/I1043Q/I1044E/L1039E/L1040E/L1047Q, form not given); assay: Isothermal calorimetry; type: binding; details: ITC, 37° C.
Method: (§1) Isothermal calorimetry (ITC) was carried out using the Auto-ITC 200 (Malvern), with a preliminary injection of 0.4 μl followed by 19 injections of 2 μl each, at 120 second intervals. Rotation of the solution was set to 750 rpm and temperature 37° C. […] The WT was run once; the S139A mutant was run in duplicate. The data were analysed with the ITC-PEAQ software (Malvern) using a one-site binding model and reference subtraction point-by-point.

S139A HCV NS3/4A PR = S139A HCV NS3/4A PR (Hepatitis C virus subtype 1a, UniProt A8DG50, A1066T/I1043Q/I1044E/L1039E/L1040E/L1047Q/S1165A, form not given); assay: Isothermal calorimetry; type: binding; details: ITC, 37° C.
Method: as §1

[1] = target: HCV NS3/4A PR D168E/PRSIM_23 (Hepatitis C virus subtype 1a, UniProt A8DG50, D1194E/S1165A, form not given); assay: Biacore 8K simeprevir titration of heterodimerisation; type: binding; details: read-out: EC50 of simeprevir for induction of heterodimerisation; D168E protease, immobilised PRSIM_23
Method: (§2) The effect of simeprevir concentration on the formation of the HCV NS3/4A PR (S139A)/PRSIM binding molecule complex was also measured using the Biacore 8K. PRSIM_57 and PRSIM_23 were covalently immobilised on a CM5 chip surface, as before. Simeprevir was diluted 1:2 (0.0152-300 nM) in 10 mM Hepes pH 7.4, 150 mM NaCl, 0.05% Surfactant P20, 0.3% DMSO at a constant 40 nM HCV NS3/4A PR (S139A) concentration. The samples were flowed over the chip at 50 μl/min using multi cycle kinetics, with 240 sec association and 600 sec dissociation. Regeneration conditions were as described above. Titration curves for the induction of HCV NS3/4A PR (S139A)/PRSIM dimerization by simeprevir were generated. The response for each simeprevir concentration at 225 sec (15 sec before the end of the association) was normalized as a percentage of the response for 300 nM Simeprevir at 225 sec and plotted against the Simeprevir concentration. Each data point represents the mean of 3 independent experiments±s.e.m. The EC50 reported was calculated using nonlinear regression curve fit. The same method was used for the mutant HCV NS3/4A proteases, except simeprevir was diluted 1:2 (0.0457-900 or 0.412-8,100 nM) in 10 mM Hepes pH 7.4, 150 mM NaCl, 0.05% Surfactant P20, 0.82% DMSO at a constant 40 nM HCV NS3/4A PR (S139A) concentration and the response for each simeprevir concentration was normalized against the highest simeprevir concentration.

[2] = target: HCV NS3/4A PR K136N/PRSIM_23 (Hepatitis C virus subtype 1a, UniProt A8DG50, A1066T/I1043Q/I1044E/K1162N/L1039E/L1040E/L1047Q/S1165A, form not given); assay: as above; type: binding; details: read-out: EC50 of simeprevir for induction of heterodimerisation; K136N protease, immobilised PRSIM_23
Method: as §2

[3] = target: HCV NS3/4A PR K136D/PRSIM_23 (Hepatitis C virus subtype 1a, UniProt A8DG50, K1162D/S1165A, form not given); assay: as above; type: binding
Method: as §2

[4] = target: HCV NS3/4A PR (S139A)/PRSIM_23 (Hepatitis C virus subtype 1a, UniProt A8DG50, A1066T/I1043Q/I1044E/L1039E/L1040E/L1047Q/S1165A, form not given); assay: as above; type: binding; details: read-out: EC50 of simeprevir for induction of heterodimerisation, 40 nM ‘WT’ (S139A) protease, immobilised PRSIM_23
Method: as §2

[5] = target: HCV NS3/4A PR (S139A)/PRSIM_57 (Hepatitis C virus subtype 1a, UniProt A8DG50, A1066T/I1043Q/I1044E/L1039E/L1040E/L1047Q/S1165A, form not given); assay: as above; type: binding; details: read-out: EC50 of simeprevir for induction of heterodimerisation; 40 nM HCV NS3/4A PR (S139A), immobilised PRSIM_57
Method: as §2

[6] = system: Caspase 3 activity in kill switch-transduced HEK293 cells; assay: Kill switch Caspase 3 functional assay; type: cell-based, human; details: relative to non-transduced cells
Method: Lentiviral particles encoding the kill switch fusion protein (SEQ ID NO: 223) or kill switch S196A mutant fusion protein (SEQ ID NO: 230) were generated using pPACKH1 HIV lentiviral packaging kit (Systems Bioscience), according to manufacturer's instructions. HEK293 cells were transduced for 24 h in the presence of 8 μg/ml polybrene after which cells were changed into fresh growth medium (DMEM+10% foetal bovine serum+1% Non-essential amino acids). 24 h later transduced cells were selected by addition of 2 μg/ml puromycin for 5 days. Before functional testing, transduced cell pools were FACS sorted based on GFP fluorescence to isolate high expressing cell line pools and single cell clones.
Functional Caspase 9 activates Caspase 3, and this proteolytic activity can be determined using cleavage of non-fluorescent substrate DEVD-AMC into cleavage products DEVD and fluorescent AMC, such that AMC fluorescence signal at 430 nm is proportional to Caspase 3 activity. For the Caspase 3 assay, cells were plated in duplicate onto 6 well tissue-culture treated plates. […] Cells lysates were analysed in triplicate using a Caspase 3 assay from BD Biosciences according to manufacturer's instruction with the modification that total protein input was normalised to 50 μg by BCA assay (LifeTechnologies). Fluorescence was determined on an Envision plate reader (PerkinElmer), Ex: 380 nm, Em: 430 nm. […]

## COc1ccc2c(O[C@@H]3C[C@H]4C(=O)N[C@]5(C(=O)NS(=O)(=O)C6CC6)C[C@H]5/C=C\CCCCN(C)C(=O)[C@@H]4C3)cc(-c3nc(C(C)C)cs3)nc2c1C [simeprevir]
WT HCV NS3/4A PR
  stoichiometry: ~0.6 Sim/NS3 binding sites
  ΔH: ~22 kcal/mol
S139A HCV NS3/4A PR
  stoichiometry: ~0.6 Sim/NS3 binding sites
  ΔH: ~22 kcal/mol
[1]
  EC50: 3.69 nM
[2]
  EC50: 8.06 nM
[3]; K136D versus wt complex
  EC50 higher than for the wt complex: ~30 fold
[3]; read-out: EC50 of simeprevir for induction of heterodimerisation, K136D protease, immobilised PRSIM_23
  EC50: 132 nM
[4]
  EC50: 4.53 nM
[4]; listed as Simeprevir
  EC50: 4.03 nM
[5]
  EC50: 4.57 nM
[6]; 10 nM simeprevir 3 h, wt kill switch
  Caspase 3 activity: significantly (p<0.0001) up-regulated; also recorded: significantly (p<0.0005) upregulated
[6]; 10 nM simeprevir, S196A mutant kill switch
  Caspase 3 activity: significantly (p<0.0005) upregulated
